Source: US4493828A, “Use of thyrotropin releasing hormone and related peptides as poultry growth promotants” (Merck & Co., Inc., priority 1982, dated 1985)

System: 4-week-old Hubbard×Hubbard cockerels
Test: Example 2: effect of TRH on growth in 4-week-old male chicks (25 days)
Format: in vivo, chicken
Protocol: Four-week-old Hubbard×Hubbard cockerels were used in this experiment, and average weight was 831.38 g. Synthetic TRH (Beckman Co., CA) was dissolved in saline and given daily by intravenous injection via the brachial vein at 0.1 μg/bird, 1.0 μg/bird, and 10 μg/ bird. Birds were weighed twice a week for 4 weeks. Data were analyzed by least squares of variance, using initial weight as a covariant.

[1] = TRH (high) 10 μg/bird daily intravenous, day 11 after start of treatment
[2] = TRH (high) 10 μg/bird daily intravenous, day 15 after start of treatment
[3] = TRH (high) 10 μg/bird daily intravenous, day 18 after start of treatment
[4] = TRH (high) 10 μg/bird daily intravenous, day 22 after start of treatment
[5] = TRH (high) 10 μg/bird daily intravenous, day 25 after start of treatment
[6] = TRH (low) 0.1 μg/bird daily intravenous, day 4 after start of treatment
[7] = TRH (low) 0.1 μg/bird daily intravenous, day 8 after start of treatment
[8] = TRH (low) 0.1 μg/bird daily intravenous, day 11 after start of treatment
[9] = TRH (low) 0.1 μg/bird daily intravenous, day 15 after start of treatment
[10] = TRH (low) 0.1 μg/bird daily intravenous, day 18 after start of treatment
[11] = TRH (low) 0.1 μg/bird daily intravenous, day 18 after start of treatment, p < 0.1
[12] = TRH (low) 0.1 μg/bird daily intravenous, day 22 after start of treatment
[13] = TRH (low) 0.1 μg/bird daily intravenous, day 22 after start of treatment, p < 0.1
[14] = TRH (low) 0.1 μg/bird daily intravenous, day 25 after start of treatment, p < 0.1
[15] = TRH (med.) 1.0 μg/bird daily intravenous, day 4 after start of treatment
[16] = TRH (med.) 1.0 μg/bird daily intravenous, day 8 after start of treatment
[17] = TRH (med.) 1.0 μg/bird daily intravenous, day 11 after start of treatment
[18] = TRH (med.) 1.0 μg/bird daily intravenous, day 15 after start of treatment
[19] = TRH (med.) 1.0 μg/bird daily intravenous, day 18 after start of treatment
[20] = TRH (med.) 1.0 μg/bird daily intravenous, day 18 after start of treatment, p < 0.1
[21] = TRH (med.) 1.0 μg/bird daily intravenous, day 22 after start of treatment
[22] = TRH (med.) 1.0 μg/bird daily intravenous, day 22 after start of treatment, p < 0.05
[23] = TRH (med.) 1.0 μg/bird daily intravenous, day 25 after start of treatment, p<0.025

NC(=O)[C@@H]1CCCN1C(=O)[C@H](Cc1c[nH]cn1)NC(=O)[C@@H]1CCC(=O)N1 [TRH, Glp--His--Pro--NH2]
body weight, percent increased as compared with control (TRH (high) 10 μg/bird daily intravenous, day 8 after start of treatment): 0% | body weight gain [1]: 542.9 ± 20.5 g | body weight gain, percent increase as compared with control [1]: 0% | body weight, least squares mean ± standard error of the mean corrected by initial weight [1]: 1381.7 ± 20.3 g | body weight, percent increased as compared with control [1]: 0% | body weight gain [2]: 786.4 ± 20.4 g | body weight gain, percent increase as compared with control [2]: 0.9% | body weight, least squares mean ± standard error of the mean corrected by initial weight [2]: 1627.6 ± 20.4 g | body weight, percent increased as compared with control [2]: 0.4% | body weight gain [3]: 981.5 ± 24.3 g | body weight gain, percent increase as compared with control [3]: 2.7% | body weight, least squares mean ± standard error of the mean corrected by initial weight [3]: 1821.6 ± 24.2 g | body weight, percent increased as compared with control [3]: 1.4% | body weight gain [4]: 1193.2 ± 26.3 g | body weight gain, percent increase as compared with control [4]: 2.1% | body weight, least squares mean ± standard error of the mean corrected by initial weight [4]: 2034.4 ± 26.3 g | body weight, percent increased as compared with control [4]: 1.2% | body weight gain [5]: 1390.9 ± 28.7 g | body weight gain, percent increase as compared with control [5]: 2.9% | body weight, least squares mean ± standard error of the mean corrected by initial weight [5]: 2232.1 ± 28.7 g | body weight, percent increased as compared with control [5]: 1.7% | body weight gain [6]: 167.1 ± 8.4 g | body weight gain, percent increase as compared with control [6]: 11.8% | body weight, least squares mean ± standard error of the mean corrected by initial weight [6]: 1012.2 ± 8.3 g | body weight, percent increased as compared with control [6]: +2.2% | body weight gain [7]: 407.6 ± 15.1 g | body weight gain, percent increase as compared with control [7]: 7.8% | body weight, least squares mean ± standard error of the mean corrected by initial weight [7]: 1248 ± 15.0 g | body weight, percent increased as compared with control [7]: +2.4% | body weight gain [8]: 585.1 ± 20.5 g | body weight gain, percent increase as compared with control [8]: 7.0% | body weight, least squares mean ± standard error of the mean corrected by initial weight [8]: 1426.4 ± 20.3 g | body weight, percent increased as compared with control [8]: +2.8% | body weight gain [9]: 822.9 ± 20.4 g | body weight gain, percent increase as compared with control [9]: 5.6% | body weight, least squares mean ± standard error of the mean corrected by initial weight [9]: 1664.2 ± 20.4 g | body weight, percent increased as compared with control [9]: +2.7% | body weight gain, percent increase as compared with control [10]: 6.3% | body weight, percent increased as compared with control [10]: +3.3% | body weight gain [11]: 1015.8 ± 24.3 g | body weight, least squares mean ± standard error of the mean corrected by initial weight [11]: 1856.9 ± 24.2 g | body weight gain, percent increase as compared with control [12]: 6.4% | body weight, percent increased as compared with control [12]: 3.7% | body weight gain [13]: 1243.5 ± 26.3 g | body weight, least squares mean ± standard error of the mean corrected by initial weight [13]: 2084.7 ± 26.3 g | body weight, percent increased as compared with control (TRH (low) 0.1 μg/bird daily intravenous, day 25 after start of treatment): 3.4% | body weight gain, percent increase as compared with control (TRH (low) 0.1 μg/bird daily intravenous, day 25 after start of treatment (end of experiment)): 5.6% | body weight gain [14]: 1428.1 g | body weight, least squares mean ± standard error of the mean corrected by initial weight [14]: 2269.3 g | body weight gain [15]: 170.1 ± 7.9 g | body weight gain, percent increase as compared with control [15]: 13.9% | body weight, least squares mean ± standard error of the mean corrected by initial weight [15]: 1010.3 ± 7.8 g | body weight, percent increased as compared with control [15]: +2.0% | body weight gain [16]: 413.4 ± 14.2 g | body weight gain, percent increase as compared with control [16]: 9.3% | body weight, least squares mean ± standard error of the mean corrected by initial weight [16]: 1254.1 ± 14.2 g | body weight, percent increased as compared with control [16]: +2.8% | body weight gain [17]: 573.1 ± 19.3 g | body weight gain, percent increase as compared with control [17]: 4.5% | body weight, least squares mean ± standard error of the mean corrected by initial weight [17]: 1415.4 ± 19.1 g | body weight, percent increased as compared with control [17]: +2.0% | body weight gain [18]: 823.2 ± 19.2 g | body weight gain, percent increase as compared with control [18]: 5.7% | body weight, least squares mean ± standard error of the mean corrected by initial weight [18]: 1664.4 ± 19.2 g | body weight, percent increased as compared with control [18]: +2.7% | body weight gain, percent increase as compared with control [19]: 6.6% | body weight, percent increased as compared with control [19]: +3.5% | body weight gain [20]: 1018.9 ± 22.9 g | body weight, least squares mean ± standard error of the mean corrected by initial weight [20]: 1860.1 ± 22.8 g | body weight gain, percent increase as compared with control [21]: 7.0% | body weight, percent increased as compared with control [21]: 4.1% | body weight gain [22]: 1250.5 ± 24.8 g | body weight, least squares mean ± standard error of the mean corrected by initial weight [22]: 2091.7 ± 24.8 g | body weight, percent increased as compared with control (TRH (med.) 1.0 μg/bird daily intravenous, day 25 after start of treatment): 4.6% | body weight gain, percent increase as compared with control (TRH (med.) 1.0 μg/bird daily intravenous, day 25 after start of treatment (end of experiment)): 7.5% | body weight gain [23]: 1453.2 g | body weight, least squares mean ± standard error of the mean corrected by initial weight [23]: 2294.4 g
